Experimental data taken from PMC8708274, “Unveiling the Membrane and Cell Wall Action of Antimicrobial Cyclic Lipopeptides: Modulation of the Spectrum of Activity” (Pharmaceutics, 2021).
Read-outs that look alike come from different tables or passages of the source. Positions of bridges follow the written chain, without caps; N, C: chain ends. Non-standard residues stand in square brackets, D forms with d. Residues, ends and D or L forms follow the SMILES beside them. *: point of attachment. Lauroyl = CCCCCCCCCCCC(=O)*; Decanoyl = CCCCCCCCCC(=O)*; Nonanoyl = CCCCCCCCC(=O)*; Nle = CCCC[C@H](N)C(=O)O; Octanoyl = CCCCCCCC(=O)*; Dab = NCC[C@H](N)C(=O)O; Hexanoyl = CCCCCC(=O)*

What was measured:
[1] = Kinetics of insertion into monolayers; type: binding, Salmonella enterica serotype Minnesota Re 595; conditions: initial pressure 32 mN·m^−1, peptide 0.48 μM, 25 min after injection, 10 mM Tris pH 7.4, 25 °C, average of three independent experiments (error < 10%)
Description: (§1) Monolayer studies were performed at room temperature (25 °C) on a monolayer system (NIMA Technology, Coventry, UK) by using a cylindrical PTFE (Teflon®, Wilmington, DE, USA) trough (5 cm diameter) containing a continuously stirred aqueous phase (12 mL, 10 mM Tris pH 7.4) and a Wilhelmy platinum plate connected to an electrobalance. The system was enclosed in a Plexiglass box to reduce surface contamination, and before each run, the plate and the trough were cleaned with hot water at >70 °C to avoid carryover of lipid or peptide. Monolayers of POPG, POPE/POPG (6:4), POPC, or LPS were formed by applying small drops of the lipid stock solutions in CHCl3 on the aqueous subphase with a microsyringe (Hamilton Co., Reno, NV, USA) to achieve a surface pressure of 32 mN·m^−1. After 10 min, allowing for solvent evaporation, a known aliquot of peptide was added without disturbance of the monolayer via an inlet port, and the surface pressure was continuously monitored.

[2] = Kinetics of insertion into monolayers; type: binding; conditions: 25 min after injection, 10 mM Tris pH 7.4, 25 °C, average of three independent experiments (error < 10%); for Increase in surface pressure (Δπ), POPE/POPG: POPE/POPG 6:4, initial pressure 32 mN·m^−1, peptide 0.48 μM; for Increase in surface pressure (Δπ), POPC / Increase in surface pressure (Δπ), POPG: initial pressure 32 mN·m^−1, peptide 0.48 μM
Description: as §1

[3] = test system: Escherichia coli ATTC 25922; type: cell-based
Description: (§2) The minimal peptide concentration required to prevent the growth of a given test organism was determined after incubation overnight at 37 °C and was defined as the MIC. Activity was determined in representative bacteria, Escherichia coli ATTC 25922, Pseudomonas aeruginosa ATTC 27853, and Staphylococcus aureus ATTC 25923, using the broth microdilution method. Serial-two-fold dilutions of peptide (from 0.06 to 32 μg/mL) were performed in Mueller–Hinton broth (MHB) culture medium in sterile 96-well polypropylene microtiter plates inoculated with a final concentration of 5 × 10^5 CFU·mL^−1 of bacteria in each well. Bacteria were in the pre-exponential phase. Each determination was done by triplicate. In order to be considered acceptable, the three MIC results have to differ in only in one well, and the result was always given as the higher of the three. Drug-free and microorganism-free wells were used as positive and negative controls, respectively. Bacterial growth was visually determined on the basis of turbidity.

[4] = test system: Staphylococcus aureus ATTC 25923; type: cell-based
Description: as §2

[5] = test system: Pseudomonas aeruginosa ATTC 27853; type: cell-based
Description: as §2

[6] = broth microdilution, MHB, 5 × 10^5 CFU/mL, overnight 37 °C, triplicate, higher of the three

SMILES	Increase in surface pressure (Δπ), LPS [1]	Increase in surface pressure (Δπ), POPE/POPG [2]	Increase in surface pressure (Δπ), POPC [2]	Increase in surface pressure (Δπ), POPG [2]	MIC EC ([3]; ATTC 25922)	MIC EC [3, 6]	MIC SA ([4]; ATTC 25923)	MIC SA [4, 6]	MIC PA ([5]; ATTC 27853)	MIC PA [5, 6]
CCCCCC(=O)N[C@@H](CCN)C(=O)N[C@H](C(=O)N[C@@H](CCN)C(=O)N[C@H]1CSSC[C@H](C(N)=O)NC(=O)[C@H](CCN)NC(=O)[C@H](CCN)NC(=O)[C@H](CC(C)C)NC(=O)[C@@H](Cc2ccccc2)NC(=O)[C@H](CCN)NC1=O)[C@@H](C)O [spB-1] (Hexanoyl-[Dab]T[Dab]C[Dab][dF]L[Dab][Dab][dC]-NH2; disulfide 4-10)	12.1 mN·m^−1	4.6 mN·m^−1	0.9 mN·m^−1	5.7 mN·m^−1	> 27 µM	> 32 µg/mL	> 27 µM	> 32 µg/mL	> 27 µM	> 32 µg/mL
CCCCCCCC(=O)N[C@@H](CCN)C(=O)N[C@H](C(=O)N[C@@H](CCN)C(=O)N[C@H]1CSSC[C@H](C(N)=O)NC(=O)[C@H](CCN)NC(=O)[C@H](CCN)NC(=O)[C@H](CC(C)C)NC(=O)[C@@H](Cc2ccccc2)NC(=O)[C@H](CCN)NC1=O)[C@@H](C)O [spB-2] (Octanoyl-[Dab]T[Dab]C[Dab][dF]L[Dab][Dab][dC]-NH2; disulfide 4-10)	12.6 mN·m^−1	5.5 mN·m^−1	1.8 mN·m^−1	7.0 mN·m^−1	13 µM	16 µg/mL	26 µM	> 32 µg/mL	6.6 µM	8 µg/mL
CCCCCCCCCCCC(=O)N[C@@H](CCN)C(=O)N[C@H](C(=O)N[C@@H](CCN)C(=O)N[C@H]1CSSC[C@H](C(N)=O)NC(=O)[C@H](CCN)NC(=O)[C@H](CCN)NC(=O)[C@H](CC(C)C)NC(=O)[C@@H](Cc2ccccc2)NC(=O)[C@H](CCN)NC1=O)[C@@H](C)O [spB-4] (Lauroyl-[Dab]T[Dab]C[Dab][dF]L[Dab][Dab][dC]-NH2; disulfide 4-10)	12.2 mN·m^−1	5.0 mN·m^−1	2.5 mN·m^−1	6.7 mN·m^−1	13 µM	16 µg/mL	6.3 µM	8 µg/mL	6.3 µM	8 µg/mL
CCCCCCCC(=O)N[C@@H](CCN)C(=O)N[C@H](C(=O)N[C@@H](CCN)C(=O)N[C@H]1CSSC[C@H](C(N)=O)NC(=O)[C@H](CCN)NC(=O)[C@H](CCN)NC(=O)[C@H](CCCC)NC(=O)[C@@H](Cc2ccccc2)NC(=O)[C@H](CCN)NC1=O)[C@@H](C)O [spB-5] (Octanoyl-[Dab]T[Dab]C[Dab][dF][Nle][Dab][Dab][dC]-NH2; disulfide 4-10)	10.6 mN·m^−1	6.5 mN·m^−1	0.8 mN·m^−1	7.3 mN·m^−1	1.7 µM	2 µg/mL	> 26 µM	> 32 µg/mL	3.3 µM	4 µg/mL
CCCCCCCCC(=O)N[C@@H](CCN)C(=O)N[C@H](C(=O)N[C@@H](CCN)C(=O)N[C@H]1CSSC[C@H](C(N)=O)NC(=O)[C@H](CCN)NC(=O)[C@H](CCN)NC(=O)[C@H](CCCC)NC(=O)[C@@H](Cc2ccccc2)NC(=O)[C@H](CCN)NC1=O)[C@@H](C)O [spB-6] (Nonanoyl-[Dab]T[Dab]C[Dab][dF][Nle][Dab][Dab][dC]-NH2; disulfide 4-10)	10.8 mN·m^−1	5.0 mN·m^−1	0.4 mN·m^−1	6.0 mN·m^−1	1.6 µM	2 µg/mL	13 µM	16 µg/mL	0.82 µM	1 µg/mL
CCCCCCCCCCCC(=O)N[C@@H](CCN)C(=O)N[C@H](C(=O)N[C@@H](CCN)C(=O)N[C@H]1CSSC[C@H](C(N)=O)NC(=O)[C@H](CCN)NC(=O)[C@H](CCCNC(=N)N)NC(=O)[C@H](CCCC)NC(=O)[C@@H](Cc2ccccc2)NC(=O)[C@H](CCN)NC1=O)[C@@H](C)O [spB-9] (Lauroyl-[Dab]T[Dab]C[Dab][dF][Nle]R[Dab][dC]-NH2; disulfide 4-10)	11.1 mN·m^−1	6.0 mN·m^−1	2.2 mN·m^−1	3.4 mN·m^−1	3.0 µM	4 µg/mL	1.5 µM	2 µg/mL	3.0 µM	4 µg/mL
CCCCCC(=O)N[C@@H](CCN)C(=O)N[C@H](C(=O)N[C@@H](CCN)C(=O)N[C@H]1CSSC[C@H](C(N)=O)NC(=O)[C@H](CCN)NC(=O)[C@H](CCN)NC(=O)[C@H](CC(C)C)NC(=O)[C@@H](CC(C)C)NC(=O)[C@H](CCN)NC1=O)[C@@H](C)O [spE-1] (Hexanoyl-[Dab]T[Dab]C[Dab][dL]L[Dab][Dab][dC]-NH2; disulfide 4-10)	10.6 mN·m^−1	4.1 mN·m^−1	0.3 mN·m^−1	2.8 mN·m^−1	> 28 µM	> 32 µg/mL	> 28 µM	> 32 µg/mL	> 28 µM	> 32 µg/mL
CCCCCCCC(=O)N[C@@H](CCN)C(=O)N[C@H](C(=O)N[C@@H](CCN)C(=O)N[C@H]1CSSC[C@H](C(N)=O)NC(=O)[C@H](CCN)NC(=O)[C@H](CCN)NC(=O)[C@H](CC(C)C)NC(=O)[C@@H](CC(C)C)NC(=O)[C@H](CCN)NC1=O)[C@@H](C)O [spE-2] (Octanoyl-[Dab]T[Dab]C[Dab][dL]L[Dab][Dab][dC]-NH2; disulfide 4-10)	9.5 mN·m^−1	6.4 mN·m^−1	0.6 mN·m^−1	4.3 mN·m^−1	14 µM	16 µg/mL	> 27 µM	> 32 µg/mL	3.4 µM	4 µg/mL
CCCCCCCCCC(=O)N[C@@H](CCN)C(=O)N[C@H](C(=O)N[C@@H](CCN)C(=O)N[C@H]1CSSC[C@H](C(N)=O)NC(=O)[C@H](CCN)NC(=O)[C@H](CCN)NC(=O)[C@H](CC(C)C)NC(=O)[C@@H](CC(C)C)NC(=O)[C@H](CCN)NC1=O)[C@@H](C)O [spE-3] (Decanoyl-[Dab]T[Dab]C[Dab][dL]L[Dab][Dab][dC]-NH2; disulfide 4-10)	10.0 mN·m^−1	7.9 mN·m^−1	1.3 mN·m^−1	5.7 mN·m^−1	6.7 µM	8 µg/mL	6.7 µM	8 µg/mL	1.7 µM	2 µg/mL
CCCCCCCCCCCC(=O)N[C@@H](CCN)C(=O)N[C@H](C(=O)N[C@@H](CCN)C(=O)N[C@H]1CSSC[C@H](C(N)=O)NC(=O)[C@H](CCN)NC(=O)[C@H](CCN)NC(=O)[C@H](CC(C)C)NC(=O)[C@@H](CC(C)C)NC(=O)[C@H](CCN)NC1=O)[C@@H](C)O [spE-4] (Lauroyl-[Dab]T[Dab]C[Dab][dL]L[Dab][Dab][dC]-NH2; disulfide 4-10)	11.4 mN·m^−1	9.1 mN·m^−1	2.1 mN·m^−1	5.8 mN·m^−1	6.5 µM	8 µg/mL	6.5 µM	8 µg/mL	0.81 µM	1 µg/mL
